Source: ChEMBL document CHEMBL5154787 (J Med Chem, 2022)
≈ marks a conversion by molar mass, not a printed value. Blank lines part the entries; values can stand above or below the molecule they belong to.

Experiments:
[1] = biological target: T1, Homeodomain-interacting protein kinase 4 (Homo sapiens, UniProt Q8NE63); assay: Inhibition of HIPK4 (unknown origin)
T1 sequence (Q8NE63 whole entry): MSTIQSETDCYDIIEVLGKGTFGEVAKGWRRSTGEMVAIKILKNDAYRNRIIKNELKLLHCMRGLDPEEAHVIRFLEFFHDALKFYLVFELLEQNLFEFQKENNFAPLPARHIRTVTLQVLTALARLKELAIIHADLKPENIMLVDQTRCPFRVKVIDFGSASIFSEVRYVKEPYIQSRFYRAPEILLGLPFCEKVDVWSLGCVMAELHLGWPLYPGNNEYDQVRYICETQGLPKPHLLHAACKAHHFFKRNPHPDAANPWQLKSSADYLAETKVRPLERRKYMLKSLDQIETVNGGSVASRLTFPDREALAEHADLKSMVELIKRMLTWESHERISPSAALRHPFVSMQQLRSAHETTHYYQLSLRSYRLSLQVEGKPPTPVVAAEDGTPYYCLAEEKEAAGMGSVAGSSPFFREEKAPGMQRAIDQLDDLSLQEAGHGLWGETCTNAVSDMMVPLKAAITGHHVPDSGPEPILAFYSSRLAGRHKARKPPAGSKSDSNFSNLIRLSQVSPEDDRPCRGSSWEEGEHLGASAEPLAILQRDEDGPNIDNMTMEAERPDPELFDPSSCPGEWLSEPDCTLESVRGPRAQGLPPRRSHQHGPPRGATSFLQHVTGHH

[2] = biological target: Rho-associated protein kinase 2 (Homo sapiens, UniProt O75116); assay: Inhibition of ROCK2 (unknown origin)
Sequence of Rho-associated protein kinase 2 (O75116 whole entry): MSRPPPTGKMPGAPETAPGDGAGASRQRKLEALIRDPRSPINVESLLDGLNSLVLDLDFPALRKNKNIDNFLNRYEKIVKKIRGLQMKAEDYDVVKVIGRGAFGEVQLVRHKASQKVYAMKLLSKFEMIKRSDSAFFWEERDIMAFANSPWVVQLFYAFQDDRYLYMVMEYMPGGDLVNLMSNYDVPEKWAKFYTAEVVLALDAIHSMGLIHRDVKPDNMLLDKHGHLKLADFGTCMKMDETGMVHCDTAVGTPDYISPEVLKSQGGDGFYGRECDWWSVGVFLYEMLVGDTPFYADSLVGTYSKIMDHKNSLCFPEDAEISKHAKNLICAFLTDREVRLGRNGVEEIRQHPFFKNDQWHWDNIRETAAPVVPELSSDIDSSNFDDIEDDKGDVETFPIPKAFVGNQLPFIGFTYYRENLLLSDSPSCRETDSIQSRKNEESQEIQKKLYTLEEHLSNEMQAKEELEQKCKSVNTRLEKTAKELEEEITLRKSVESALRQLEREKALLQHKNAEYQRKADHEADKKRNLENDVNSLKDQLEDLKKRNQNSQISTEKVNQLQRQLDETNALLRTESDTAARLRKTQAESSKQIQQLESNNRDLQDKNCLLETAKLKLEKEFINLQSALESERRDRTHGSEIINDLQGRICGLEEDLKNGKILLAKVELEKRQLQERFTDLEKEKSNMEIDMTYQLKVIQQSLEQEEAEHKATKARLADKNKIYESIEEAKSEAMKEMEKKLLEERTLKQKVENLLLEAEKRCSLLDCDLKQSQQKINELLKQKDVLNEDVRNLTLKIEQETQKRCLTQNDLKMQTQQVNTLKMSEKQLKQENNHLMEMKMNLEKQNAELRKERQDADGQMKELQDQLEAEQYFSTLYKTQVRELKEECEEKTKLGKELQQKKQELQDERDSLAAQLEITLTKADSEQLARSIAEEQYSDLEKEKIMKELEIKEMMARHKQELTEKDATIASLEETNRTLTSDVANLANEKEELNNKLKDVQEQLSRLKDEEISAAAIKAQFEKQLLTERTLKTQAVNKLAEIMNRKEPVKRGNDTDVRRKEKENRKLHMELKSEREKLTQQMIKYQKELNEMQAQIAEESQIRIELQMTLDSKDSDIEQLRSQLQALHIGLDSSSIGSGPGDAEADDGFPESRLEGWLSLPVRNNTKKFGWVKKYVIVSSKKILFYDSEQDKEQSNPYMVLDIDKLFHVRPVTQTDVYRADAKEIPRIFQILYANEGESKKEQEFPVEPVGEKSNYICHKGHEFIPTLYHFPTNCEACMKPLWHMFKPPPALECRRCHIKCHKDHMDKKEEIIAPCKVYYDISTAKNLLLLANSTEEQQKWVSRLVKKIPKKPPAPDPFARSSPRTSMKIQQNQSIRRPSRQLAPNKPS

[3] = Inhibition of TAK/TAB (unknown origin)
[4] = Chemical stability of the compound assessed as remaining product at pH 1 measured after 22 hrs; format: physicochemical; details: buffer, read-out: Stability
[5] = Genotoxicity in chinese hamster CHO cells without metabolic activation system at 59 uM by IVMN assay; format: toxicity, cell-based, Cricetulus griseus
[6] = Solubility of compound at pH 1 measured after 24 hrs; format: physicochemical; details: buffer
[7] = Solubility of compound at pH 2 measured after 24 hrs; format: physicochemical; details: buffer
[8] = Solubility of compound at pH 4 measured after 24 hrs; format: physicochemical; details: buffer
[9] = Solubility of compound at pH 5 measured after 24 hrs; format: physicochemical; details: buffer
[10] = Solubility of compound at pH 6.5 measured after 24 hrs; format: physicochemical; details: buffer
[11] = Solubility of compound at pH 7.4 measured after 24 hrs; format: physicochemical; details: buffer
Rattus norvegicus [12] = assay: Analgesic activity in STZ induced in diabetic peripheral neuropathic mechanical allodynia in Sprague-Dawley rat assessed as reduction in pain response at 10 mg/kg, po measured up to 24 hrs by Hargreaves test relative to control; format: functional; parameters: scale not given: the % may be the effect or the level left
Rattus norvegicus [13] = assay: Analgesic activity in STZ induced in diabetic peripheral neuropathic mechanical allodynia in Sprague-Dawley rat assessed as reduction in pain response at 3 mg/kg, po measured up to 24 hrs by Hargreaves test relative to control; format: functional; parameters: scale not given: the % may be the effect or the level left
Rattus norvegicus [14] = assay: Analgesic activity in STZ induced in diabetic peripheral neuropathic mechanical allodynia in Sprague-Dawley rat assessed as reversal in mechanical allodynia by measuring inhibition of pain response at 1 mg/kg, po measured up to 24 hrs by Hargreaves test relative to control; format: functional; parameters: scale not given: the % may be the effect or the level left
[15] = biological target: 5-hydroxytryptamine receptor 2B (Homo sapiens, UniProt P41595); assay: Inhibition of 5HT2B receptor (unknown origin); format: toxicity
[16] = biological target: Death-associated protein kinase 1 (Homo sapiens, UniProt P53355); assay: Inhibition of DAPK1 (unknown origin)
[17] = Ratio of drug concentration in spinal cord to plasma in CCI induced thermal hyperalgesia in Sprague-Dawley rat at 1 mg/kg, po measured at 5.5 hrs post dose; format: ADME, organism-based
[18] = Plasma concentration in CCI induced thermal hyperalgesia in Sprague-Dawley rat at 1 mg/kg, po measured at 5.5 hrs post dose; format: ADME, organism-based
[19] = Drug concentration in CCI induced thermal hyperalgesia in Sprague-Dawley rat spinal cord at 1 mg/kg, po measured after 5.5 hrs; format: ADME, organism-based; details: read-out: Ct
[20] = biological target: Solute carrier organic anion transporter family member 1B1 (Homo sapiens, UniProt Q9Y6L6); assay: Inhibition of OATP1B1 (unknown origin)
Sequence of Solute carrier organic anion transporter family member 1B1 (Q9Y6L6 whole entry): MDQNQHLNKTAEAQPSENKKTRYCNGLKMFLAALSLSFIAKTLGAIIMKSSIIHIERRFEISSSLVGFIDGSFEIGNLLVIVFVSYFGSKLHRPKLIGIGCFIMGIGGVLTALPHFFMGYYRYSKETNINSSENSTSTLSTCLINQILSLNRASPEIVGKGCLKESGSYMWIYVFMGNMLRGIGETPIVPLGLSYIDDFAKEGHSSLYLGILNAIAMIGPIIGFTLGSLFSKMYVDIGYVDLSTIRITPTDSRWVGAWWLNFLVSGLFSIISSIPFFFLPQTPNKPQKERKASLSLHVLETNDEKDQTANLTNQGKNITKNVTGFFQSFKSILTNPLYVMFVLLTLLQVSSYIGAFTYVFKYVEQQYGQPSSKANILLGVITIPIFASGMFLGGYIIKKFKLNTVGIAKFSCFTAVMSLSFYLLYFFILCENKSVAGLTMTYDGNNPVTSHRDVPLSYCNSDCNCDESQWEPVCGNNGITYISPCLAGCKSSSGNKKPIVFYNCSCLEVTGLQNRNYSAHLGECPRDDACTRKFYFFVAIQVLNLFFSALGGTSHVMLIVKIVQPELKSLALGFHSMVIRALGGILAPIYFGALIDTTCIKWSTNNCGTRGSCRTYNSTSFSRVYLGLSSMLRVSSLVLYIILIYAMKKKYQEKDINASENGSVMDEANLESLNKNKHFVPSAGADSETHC

[21] = biological target: Hepatic sodium/bile acid cotransporter (Homo sapiens, UniProt Q14973); assay: Inhibition of NTCP (unknown origin)
Sequence of Hepatic sodium/bile acid cotransporter (Q14973 whole entry): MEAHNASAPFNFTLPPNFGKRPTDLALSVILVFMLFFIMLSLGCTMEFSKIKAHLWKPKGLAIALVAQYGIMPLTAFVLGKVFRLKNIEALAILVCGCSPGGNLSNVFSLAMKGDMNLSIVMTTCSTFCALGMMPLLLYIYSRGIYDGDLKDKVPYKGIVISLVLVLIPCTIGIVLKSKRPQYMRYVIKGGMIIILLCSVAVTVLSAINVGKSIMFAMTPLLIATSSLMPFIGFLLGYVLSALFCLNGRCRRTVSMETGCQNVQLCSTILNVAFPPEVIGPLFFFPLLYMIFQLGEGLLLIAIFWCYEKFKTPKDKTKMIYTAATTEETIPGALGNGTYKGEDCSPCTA

Bile salt export pump = Bile salt export pump (Homo sapiens, UniProt O95342); assay: Inhibition of BSEP (unknown origin)
[22] = biological target: ATP-binding cassette sub-family C member 2 (Homo sapiens, UniProt Q92887); assay: Inhibition of MRP2 (unknown origin)
[23] = biological target: Solute carrier family 22 member 6 (Homo sapiens, UniProt Q4U2R8); assay: Inhibition of OAT1 (unknown origin)
Sequence of Solute carrier family 22 member 6 (Q4U2R8 whole entry): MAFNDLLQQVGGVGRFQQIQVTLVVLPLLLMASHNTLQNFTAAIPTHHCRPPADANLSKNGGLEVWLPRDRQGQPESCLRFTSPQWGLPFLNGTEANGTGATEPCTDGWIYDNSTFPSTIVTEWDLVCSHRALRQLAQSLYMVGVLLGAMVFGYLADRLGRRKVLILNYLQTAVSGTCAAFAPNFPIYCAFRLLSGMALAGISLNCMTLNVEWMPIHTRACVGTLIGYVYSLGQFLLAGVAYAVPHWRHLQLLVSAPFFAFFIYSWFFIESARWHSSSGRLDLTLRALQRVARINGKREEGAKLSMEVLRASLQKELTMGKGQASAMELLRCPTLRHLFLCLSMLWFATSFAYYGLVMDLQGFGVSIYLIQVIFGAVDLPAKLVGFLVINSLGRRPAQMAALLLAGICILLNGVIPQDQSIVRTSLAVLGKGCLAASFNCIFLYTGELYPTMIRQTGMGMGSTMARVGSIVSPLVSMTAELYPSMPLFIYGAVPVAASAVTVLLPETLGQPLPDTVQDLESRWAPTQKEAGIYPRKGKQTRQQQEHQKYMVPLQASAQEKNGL

[24] = biological target: Organic anion transporter 3 (Homo sapiens, UniProt Q8TCC7); assay: Inhibition of OAT3 (unknown origin)
[25] = Inhibition of cardiac sodium channel (unknown origin); parameters: species or system Homo sapiens
[26] = Tmax in rat at 3 mg/kg, po; format: ADME, organism-based; details: in vivo
[27] = In vivo protein occupancy at AAK1 in rat at 3 mg/kg, po measured after 4 hrs; format: functional
[28] = Plasma concentration in rat at 3 mg/kg, po measured after 4 hrs; format: ADME, organism-based
[29] = Drug concentration in rat spinal cord at 3 mg/kg, po measured after 4 hrs; format: ADME, organism-based; details: read-out: Ct
[30] = Ratio of drug concentration in spinal cord to plasma in rat at 3 mg/kg, po measured at 4 hrs post dose; format: ADME, organism-based
Rattus norvegicus [31] = assay: Analgesic activity in CCI induced thermal hyperalgesia in Sprague-Dawley rat assessed as reduction in thermal hyperalgesia by measuring inhibition of pain response at 3 mg/kg, po measured after 5.5 hrs by Hargreaves test relative to control; format: functional; parameters: scale not given: the % may be the effect or the level left
Rattus norvegicus [32] = assay: Analgesic activity in CCI induced thermal hyperalgesia in Sprague-Dawley rat assessed as reduction in thermal hyperalgesia by measuring inhibition of pain response at 1 mg/kg, po measured after 5.5 hrs by Hargreaves test relative to control; format: functional; parameters: scale not given: the % may be the effect or the level left
Rattus norvegicus [33] = assay: Analgesic activity in STZ induced in diabetic peripheral neuropathic path mechanical allodynia in Sprague-Dawley rat assessed as reversal in mechanical allodynia by measuring inhibition of pain response at 1 mg/kg, po measured up to 5.5 hrs by Hargreaves test relative to control; format: functional; parameters: scale not given: the % may be the effect or the level left
[34] = Drug concentration in CCI induced thermal hyperalgesia in Sprague-Dawley rat spinal cord at 3 mg/kg, po measured after 5.5 hrs; format: ADME, organism-based; details: read-out: Ct
[35] = Ratio of drug concentration in spinal cord to plasma in CCI induced thermal hyperalgesia in Sprague-Dawley rat at 3 mg/kg, po measured at 5.5 hrs post dose; format: ADME, organism-based
[36] = biological target: Citron Rho-interacting kinase (Homo sapiens, UniProt O14578); assay: Inhibition of CRIK (unknown origin)
Sequence of Citron Rho-interacting kinase (O14578 whole entry): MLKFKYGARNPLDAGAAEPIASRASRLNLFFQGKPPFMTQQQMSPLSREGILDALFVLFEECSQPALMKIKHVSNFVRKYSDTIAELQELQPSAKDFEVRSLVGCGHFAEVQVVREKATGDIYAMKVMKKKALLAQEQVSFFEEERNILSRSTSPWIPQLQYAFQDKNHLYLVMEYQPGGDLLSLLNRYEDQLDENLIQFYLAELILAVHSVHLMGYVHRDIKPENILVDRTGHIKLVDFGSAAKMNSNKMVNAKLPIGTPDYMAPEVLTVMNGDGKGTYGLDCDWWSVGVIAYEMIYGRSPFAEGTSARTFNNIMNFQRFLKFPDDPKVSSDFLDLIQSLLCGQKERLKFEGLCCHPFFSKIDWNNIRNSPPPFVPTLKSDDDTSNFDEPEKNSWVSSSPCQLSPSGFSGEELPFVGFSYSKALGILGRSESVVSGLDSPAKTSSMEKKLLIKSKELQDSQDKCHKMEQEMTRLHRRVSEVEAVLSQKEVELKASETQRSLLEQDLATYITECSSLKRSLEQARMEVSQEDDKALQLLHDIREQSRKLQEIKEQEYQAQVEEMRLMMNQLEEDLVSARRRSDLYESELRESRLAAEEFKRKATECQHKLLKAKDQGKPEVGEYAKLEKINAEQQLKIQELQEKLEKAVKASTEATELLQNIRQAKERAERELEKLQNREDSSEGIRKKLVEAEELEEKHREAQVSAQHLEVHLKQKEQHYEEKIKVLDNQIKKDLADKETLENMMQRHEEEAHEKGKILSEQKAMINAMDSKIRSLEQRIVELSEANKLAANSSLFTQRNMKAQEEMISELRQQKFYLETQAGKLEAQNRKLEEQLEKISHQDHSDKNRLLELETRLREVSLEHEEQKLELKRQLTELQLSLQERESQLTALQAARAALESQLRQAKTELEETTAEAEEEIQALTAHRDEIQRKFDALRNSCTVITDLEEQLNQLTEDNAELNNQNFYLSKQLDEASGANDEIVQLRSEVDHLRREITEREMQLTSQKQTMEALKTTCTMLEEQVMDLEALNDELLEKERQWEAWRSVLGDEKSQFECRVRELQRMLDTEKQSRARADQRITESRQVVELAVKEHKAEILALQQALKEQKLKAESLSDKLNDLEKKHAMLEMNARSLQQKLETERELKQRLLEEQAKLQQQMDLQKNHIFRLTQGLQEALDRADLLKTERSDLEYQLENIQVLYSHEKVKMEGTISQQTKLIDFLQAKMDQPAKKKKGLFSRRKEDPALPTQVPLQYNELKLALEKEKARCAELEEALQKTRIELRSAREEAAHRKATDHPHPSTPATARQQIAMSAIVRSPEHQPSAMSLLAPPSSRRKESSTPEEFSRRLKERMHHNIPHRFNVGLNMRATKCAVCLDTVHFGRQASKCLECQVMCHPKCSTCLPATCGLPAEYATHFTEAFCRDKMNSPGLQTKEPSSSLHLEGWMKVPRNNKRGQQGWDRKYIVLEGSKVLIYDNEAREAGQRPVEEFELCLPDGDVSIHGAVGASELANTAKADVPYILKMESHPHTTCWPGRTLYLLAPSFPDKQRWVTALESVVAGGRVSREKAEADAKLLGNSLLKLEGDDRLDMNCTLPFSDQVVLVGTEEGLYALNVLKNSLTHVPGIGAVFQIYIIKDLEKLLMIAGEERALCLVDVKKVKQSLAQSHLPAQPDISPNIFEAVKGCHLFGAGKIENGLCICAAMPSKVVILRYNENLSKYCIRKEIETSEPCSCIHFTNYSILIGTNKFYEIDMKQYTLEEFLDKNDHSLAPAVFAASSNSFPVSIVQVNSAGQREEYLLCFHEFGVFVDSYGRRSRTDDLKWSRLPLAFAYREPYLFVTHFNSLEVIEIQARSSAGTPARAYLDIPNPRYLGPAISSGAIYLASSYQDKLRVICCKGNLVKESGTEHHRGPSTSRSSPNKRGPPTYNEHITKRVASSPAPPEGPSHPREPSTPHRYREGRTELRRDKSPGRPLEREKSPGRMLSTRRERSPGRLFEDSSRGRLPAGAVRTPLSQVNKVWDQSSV

[37] = Protein binding in cynomolgus monkey plasma assessed as unbound fraction measured after 3 hrs by LC/MS/MS analysis; format: ADME, cell-free, Macaca fascicularis
[38] = Protein binding in dog plasma assessed as unbound fraction measured after 3 hrs by LC/MS/MS analysis; format: ADME, cell-free, Canis lupus familiaris

IC50 [1]: 1800 nM
IC50 [2]: 1300 nM
IC50 [3]: 180 nM
Compound: COC(=O)Nc1cc(-c2cnc(OC[C@@](C)(N)CC(C)C)c(C)c2)ccn1

remaining at 22 h [4]: 100%
solubility at 24 h [6]: > 1000 µg/mL
solubility at 24 h [7]: > 1000 µg/mL
solubility at 24 h [8]: > 1000 µg/mL
solubility at 24 h [9]: > 1000 µg/mL
solubility at 24 h [10]: > 1000 µg/mL
solubility at 24 h [11]: 288 µg/mL (≈ 773 µM)
Compound: COC(=O)Nc1cc(-c2ccc(OC[C@@](C)(N)CC(C)C)c(C)n2)ccn1
Activity [5]: Non-Toxic
Activity (Rattus norvegicus [12]): 80%
Activity (Rattus norvegicus [13]): 60%
Activity (Rattus norvegicus [14]): 40%
IC50 [15]: 540 nM
IC50 [16]: 1400 nM

Kp at 5.5 h [17]: 18
concentration at 5.5 h [18]: 12 nM
concentration at 5.5 h [19]: 217 nM
IC50 [20]: > 50000 nM
IC50 [21]: > 50000 nM
IC50 [22]: > 50000 nM
IC50 [23]: > 50000 nM
IC50 [24]: > 50000 nM
IC50 [25]: 5400 nM
Tmax [26]: 3.7 h
concentration at 4 h [28]: 47 nM
concentration at 4 h [29]: 825 nM
Kp at 4 h [30]: 17.6
concentration at 5.5 h [34]: 378 nM
Kp at 5.5 h [35]: 13
IC50 [36]: 1200 nM
fraction unbound at 3 h [37]: 0.075
fraction unbound at 3 h [38]: 0.08
Compound: CC(C)C[C@](C)(N)COc1cnc(-c2ccnc(C(F)F)c2)cc1C(F)F
IC50 (Bile salt export pump): > 50000 nM
Activity [27]: 95%
Activity (Rattus norvegicus [31]): 100%
Activity (Rattus norvegicus [32]): 80%
Activity (Rattus norvegicus [33]): 50%
